# Measured values from patent US7344531B2, “Thermal surgical procedures and compositions” (Regents of the University of Minnesota, priority 2003, dated 2008).
# “Also recorded” adds a separate entry of the source.
# What was measured:
# [1] = system: Human dermal microvascular endothelial cells (MVEC); experiment: Enhancement of direct cellular injury by freeze/thaw after TNF-alpha exposure, MVEC; format: cell-based
# Experimental: Cell suspensions of human endothelial cells (MVECs) were used to assess the enhancement of direct cellular injury (DCI) by use of an adjuvant, wherein the adjuvant used is TNF-alpha.
# Human dermal microvascular endothelial cells (MVEC) were prepared and grown as adherent monolayers as described by Gupta et al., Experimental Cell Research, 230:244-251 (1997), maintained in a 37° C./5% CO2/95% humidified air environment in T-flasks pre-coated with 1% gelatin in MCDB 131 medium supplemented with 20% heat-inactivated human male serum, hydrocortisone, cAMP, L-glutamine, heparin, endothelial cell growth supplement (Vec Tec, Schenectady, N.Y.) and antibiotics. […]
# Control and experimental F/T groups were then assessed for cell viability at varying time points starting 3 hours after intervention. Cell viability was measured microscopically by a fluorescent dye assay (cell viability assay) by an apoptotic/necrotic assay.
# The fluorescent dye assay was used to assess the plasma membrane integrity of cells immediately before (control) and after F/T using Hoechst 33342 and propidium iodide (PI). […] Cells were incubated with 9 μM Hoechst 33342 and 7 μM PI for 15 minutes at 37° C., placed on a microslide, cover-slipped and the percentage of dead cells/field determined at 200X using a fluorescent microscope (Olympus BX-50, Tokyo, Japan). […]
# [2] = system: normal nude mouse hypodermis (normal skin); experiment: Cryosurgery of TNF-alpha pre-inflamed normal skin in dorsal skin flap chamber (DSFC); format: in vivo
# [3] = system: LNCaP Pro 5 prostate cancer cells; experiment: Enhancement of direct cellular injury by freeze/thaw after TNF-alpha exposure, LNCaP Pro 5; format: cell-based, human
# [4] = system: LNCaP Pro 5 human prostate cancer tumor tissue; experiment: Cryosurgery of TNF-alpha pre-inflamed LNCaP Pro 5 tumor in dorsal skin flap chamber (DSFC); format: in vivo, male athymic nude mice
# Experimental: The dorsal skin flap chamber (DSFC) of male athymic nude mice was seeded with the tumor LNCaP […] human prostate cancer, inflamed with TNF-alpha, subjected to cryosurgery, and assessed according to the following procedure. The dorsal skin of a male athymic nude mouse was sandwiched between two identical anodized aluminum frames, a 19 millimeter (mm) by 22 mm chamber was mounted onto the mouse by three screws, the skin was attached to the chamber with 4-O silk using suture holes, and the skin on the side of the viewing region was removed, exposing the dermis containing the microvasculature on the opposite side of the skin. To provide chambers having tumors, approximately 5×10^6LNCaP […] human prostate tumor cells were mixed with MATRIGEL matrix (BD Biosciences, Bedford, Mass.) as described by Lim et al. (Prostate, 22:109-118 (1993)). Approximately 30 μl of the cell suspension was applied to the surface of the microvascular bed immediately after the initial chamber implantation and the tumor was allowed to grow for 10 days, the skin reaching a total thickness of about 450 micrometers (μm) and the tumor extending approximately 10 mm in diameter. […] After four (4) hours, the mouse was anesthetized, TNF-alpha-induced inflammation was measured by observation of leukocyte rolling, and thereafter cryosurgery was immediately performed in the inflamed tissue. […] The temperature at each thermocouple was recorded using a HYDRA DATA LOGGER SERIES 2 (Fluke, Everett, Wash.). […] The dorsal skin flap chamber was then illuminated with a mercury lamp and a FITC signal-enhancing filter (λ=470-490 nm) to view the contrast fluorescence. A Silicon Intensified Transmission camera (Hamamatsu, North Central Instruments, Twin Cities, Minn.) was used to detect the fluorescent signal, and the signal was recorded with a JVC S-VHS video recorder (JVC Company of America, Aurora, Ill.). […] The end temperature of the cryolesion and the thermal parameters within the cryosurgical ice ball were calculated according to the methods of Chao et al. (Cryobiology, 2004 (in press)). […]
# [5] = system: MCF-7 breast cancer cells; experiment: Enhancement of direct cellular injury by freeze/thaw after TNF-alpha exposure, MCF-7; format: cell-based
# [6] = TNF-alpha 10 ng/ml to 1 μg/ml for 4 to 48 hours before freeze/thaw
substance,measurement,setting,value
TNF-alpha,cryosensitivity of cells in vitro,[1]; [6],increase cryosensitivity
same,necrosis of inflamed cells in vitro,[1]; apoptosis/necrosis assay,increased necrosis
same,minimum temperature required for cryo-destruction,[2]; TNF-alpha-treated normal skin,−9.8±5.8 °C
same,position of the edge of the static zone relative to the edge of the ice ball,[2]; inflamed normal skin tissues treated with TNF-alpha,stayed within the edge of the ice ball; also recorded: moved the edge of the static zone closer to the edge of the cryosurgical ice ball
same,radius of the edge of the static zone (zone of vascular stasis),"[2]; normal nude mouse hypodermis treated with TNF-alpha, day 3 post cryosurgery",3.99±0.13 mm
same,cryosensitivity of cells in vitro,[3]; [6],increase cryosensitivity
same,necrosis of inflamed cells in vitro,[3]; apoptosis/necrosis assay,increased necrosis
same,position of the edge of the static zone relative to the edge of the ice ball,[4]; LNCaP Pro 5 tumor tissues treated with TNF-alpha,extended beyond the edge of the ice ball
same,radius of the edge of the static zone (zone of vascular stasis),"[4]; day 3 post cryosurgery, LNCaP Pro 5 tumor tissue, local 0.2 ng TNF-alpha 4 hours before cryosurgery",4.07±0.34 mm
same,increase of the threshold temperature of cryo-destruction versus tissue without TNF-alpha,"[4]; local use of TNF-alpha, LNCaP Pro 5 tumor tissue",more than 10 °C
same,cryosensitivity of cells in vitro,[5]; [6],increase cryosensitivity
same,necrosis of inflamed cells in vitro,[5]; apoptosis/necrosis assay,increased necrosis
